Experimental data taken from US20210115071A1, “NANOSCALE METAL-ORGANIC FRAMEWORKS FOR ENHANCED TUMOR CHEMORADIATION” (Oregon State University, priority 2019, published 2021).

Legend:
[1] = Drug loading / encapsulation efficiency in Hf-BDC-PEG by HPLC; format: physicochemical; details: loaded into Hf-BDC-PEG
Procedure: (§1) Talazoparib and buparlisib were loaded into the Hf-BDC-PEG nMOFs by directly adding aliquots of the dissolved drugs (10 mg/mL in DMSO) at the desired concentrations into distilled water (2 mL) with the Hf-BDC-PEG nMOFs (approximately 5.0 mg) and stirred overnight. Unloaded drug(s) were removed by centrifugation and the supernatant was collected and quantified on HPLC to determine the concentration of unloaded talazoparib and buparlisib. A calibration curve for talazoparib and buparlisib was obtained using standard solutions at different concentrations and the curve was fitted with linear regression. Encapsulation efficiency was determined based on the ratio of the amount of drug loaded in Hf-BDC-PEG to the total amount added. The resulting nMOFs were dried under vacuum and stored until use. The influence of pH on drug release of talazoparib and buparlisib from the Hf-BDC-PEG nMOF was investigated using dialysis. TB@Hf-MOF (1.6 mg, 500 μL) was loaded into Slide-A-Lyzer MINI dialysis microtubes with a molecular weight cutoff of 2,000. The loaded samples were dialyzed against 12 mL of buffer (pH 5.5 or 7.4 PBS) with gentle stirring under ambient conditions. At designated time points of 0, 1, 2, 4, 24, 48, 72, 168, and 336 hours, sink samples (6 mL) were collected and replaced with fresh solution. Talazoparib and buparlisib concentrations were determined via HPLC, and drug release profiles were plotted as cumulative % of total drug release vs. time. All drug release measurements were performed in triplicate.

[2] = system: CT26.wt cells; assay: Free drug cytotoxicity and combination index; format: cell-based, Murine; details: for IC50 decrease in combination vs individual drug: 30:1 TMZ:Tal; for IC50: Mus musculus, CT26.WT, 72 hrs, combination as overall concentration
Procedure: Free drug cytotoxicity was investigated with Tal and TMZ as individual and combination agents. To determine the optimal TMZ:Tal ratio, CT26.wt cells were plated at 4×10^3 cells per well in a 96-well plate and allowed to settle overnight. Cells were then treated with TMZ (0, 10, 30, 150, 300, 600 or 1000 μM), Tal (0, 1, 5, 10, or 100 μM), or TMZ:Tal at each of the concentrations combined (ratios ranging from 1000:1 to 1:10) and incubated for 72 hrs. Combination indexes (CIs) were determined for all combinations (including only those points on the curve with Fa values between 0.1 and 0.9) using CompuSyn (ComboSyn Inc., Paramus, N.J., USA).

[3] = Drug release from TB@Hf-BDC-PEG by dialysis; format: physicochemical; details: 25° C.
Procedure: as §1, with “Unloaded” for “Talazoparib and buparlisib were loaded into the Hf-BDC-PEG nMOFs by directly adding aliquots of the dissolved drugs (10 mg/mL in DMSO) at the desired concentrations into distilled water (2 mL) with the Hf-BDC-PEG nMOFs (approximately 5.0 mg) and stirred overnight. Unloaded”

[4] = system: 4T1 cells; details: free drug, previously reported by the inventors; read-out: individual agent IC50; cited from earlier work
[5] = cited from earlier work
[6] = Drug loading of Hf-BDC nMOF (encapsulation efficiency); format: physicochemical; details: loaded in Hf-BDC nMOF
Procedure: nMOFs were suspended in either 18 MΩ water (generation 1) or methanol (generation 2) at 5 mg/mL depending on colloidal stability. nMOF redispersed in water at 5 mg/mL was combined with fucoidan or dextran (both at 1 mg/mL in 18 MΩ water) at a 1:1 v/v ratio, sonicated for 1 hour, and filtered. nMOF redispersed in methanol at 5 mg/mL was combined with fucoidan or dextran (both at 1 mg/mL in 18 MΩ water) at a 1:1 v/v ratio, sonicated for 15 mins and stirred open overnight. After evaporation nMOFs were redispersed to 2.5 mg/mL nMOF in water and subsequently filtered. For drug loading, all steps remained the same except that drug dissolved in DMSO (Tal and/or TMZ or Cyanine 7.5) was added to the nMOF in water or methanol, sonicated for one hour, and washed by centrifuge twice (collecting the supernatant for quantification) before continuing with either surface coating procedure.

Row | Encapsulation efficiency (EE %) [1] | drug released within the first 24 hours ([3]; pH 5.5, PBS) | drug release after two weeks incubation ([3]; pH 7.5, PBS) | drug released within the first 24 hours ([3]; pH 7.5, PBS) [%] | average encapsulation efficiencies (EE) [6] [%] | Compound | IC50 decrease in combination vs individual drug [2] [fold] | IC50 [2] [µM] | IC50 [4] [µM] | log P [5]
1 | approximately 98% | – | – | – | – | C[N+]1=C(C=CC2=CC(=CC=C3N(CCCCCC(=O)O)c4ccc5ccccc5c4C3(C)C)CCC2)C(C)(C)c2c1ccc1ccccc21.[Cl-] [Cy 7.5, cyanine 7.5 carboxylic acid] | – | – | – | –
2 | – | – | – | – | – | Cn1nnc2c(C(N)=O)ncn2c1=O [TMZ, temozolomide] | 3.3 | 34 | – | –
3 | 14% | ~37% | ~100% | 24 | – | Nc1cc(C(F)(F)F)c(-c2cc(N3CCOCC3)nc(N3CCOCC3)n2)cn1 [buparlisib] | – | – | 4.7 | 2.13
4 | 77% | approximately 21% | approximately 85% | 11 | 54 | Cn1ncnc1[C@H]1c2n[nH]c(=O)c3cc(F)cc(c23)N[C@@H]1c1ccc(F)cc1 [talazoparib] | 14.6 | 5.1 | 1.4 | 2.93
